Tests used:
wheat plants [1] = assay: Ethephon-induced chlorophyll degradation in wheat leaves, glumes and chaffs; assay type: in vivo, wheat (Triticum turgidum var. 'Gdera'); conditions: for Ethephon-induced decrease in the content of chlorophyll: WS-CPD 45 μg mL^−1
Protocol: (§1) (1) Abscission—This is a very sensitive model system for studying the effects of plant hormones. Ethylene induces the process of abscission, while auxin delays it. In the laboratory the experimental system is based on plant organ explants, which include the abscission zone. Abscission is induced by exposure to ethylene and at the termination of the experiment the number of abscised organs, usually either leaf blades or petioles are counted and the fraction of abscission is calculated. In the case of fruit, the decrease in fruit retention force is analyzed. In cotton, when WS-CPD (the ethylene-action antagonist herein disclosed) is tested, the whole plants or explants are pretreated by spraying with the antagonist, dissolved in a phosphate buffer solution (10-20 mM, pH 7.0) including 0.1% commercially available Kinetic™ as surfactant, and left to incubate for a predetermined time, usually between 6 and 24 h. The plants or explants are then further exposed for 24 h to ethylene gas (5 to 20 μL L^−1). The plants or explants are then ventilated and incubated for the required time under controlled conditions. At the end of the experiment the percentage of abscission is determined. (2) Chlorophyll degradation—This is a standard model for studying senescence. Plant material (whole plants, excised leaves or leaf discs) are pretreated. In cotton, tobacco and wheat, when WS-CPD is tested, the whole plants or explants are pretreated by spraying with the antagonist, dissolved in phosphate buffer solution (10-20 mM, pH 7.0) including 0.1% commercially available Kinetic™ surfactant, and left to incubate for a predetermined time, usually between 6 and 241. The plants or explants are then further exposed for 24 h to ethylene gas (1 to 100 μL L^−1), or sprayed with Ethephon™ (wheat; 250 to 750 μL L^−1). The plants or explants are then ventilated and incubated for the required time under controlled conditions. At the end of the experiment a dimethylsulfoxide (DMSO) extract of the plant tissue is prepared, and the chlorophyll content of the extract is determined by spectrophotometric analysis. The chlorophyll content is reported either on a fresh, dry weight basis, or on a surface area basis. (3) Epinasty—This is also one of the classical methods for studying ethylene effects in plants. The extent of ethylene-induced epinasty of leaves is determined by measuring the change of the angle between the petiole and the stem shoot or blade. After exposure of the intact plant to ethylene, the upright grown leaves bend downward. The increase in the angle values (degrees) between petiole and the stem is used as a measure of the effect of the ethylene. When WS-CPD is tested on cotton and wheat plants, the whole plants are pretreated by spraying with the antagonist dissolved in phosphate buffer solution (10-20 mM, pH 7.6) including 0.1% Kinetic™ as surfactant, and left to incubate for a predetermined time, usually between 6 and 24 h. The plants are then further exposed for 24 h to ethylene gas (cotton, 5 to 10 μL L^−1), or sprayed with Ethephon™ (wheat, 250 to 750 μL L^−1). The plants are then ventilated and incubated for the required time under controlled conditions. The epinastic effect is expressed by measuring the degree values of the downward curvature between the blade and petiole (cotton, FIGS. 1-3) or between the blade and the stem (wheat, FIGS. 31 and 32). (4) Wheat Grain yield—This is a common test of the effects of exposure of monocot plants either to environmental stresses such as drought that induce senescence by increasing endogenous ethylene production. Excessive internal or external ethylene will accelerate senescence which will lead to reduced grain yield. In this project the intact plants were grown in the greenhouse up to the spike hading at milky stage I and II. The plants were then sprayed with the dissolved WS-CPD in phosphate buffer solution (10 mM, pH 7.6) including 0.1% Kinetic™ as surfactant. Young Cotton Seedlings […]

wheat plants [2] = assay: Wheat grain weight at the milky stages after Ethephon treatment; assay type: in vivo, wheat (Triticum turgidum var. 'Gdera'); conditions: for grain yield increase by antagonizing Ethephon: fresh weight basis
Protocol: as §1

young cotton seedlings = assay: Ethylene-induced chlorophyll degradation in young cotton seedlings; assay type: in vivo, cotton (Gossyium hirsutum barbadense L.); conditions: for increase of chlorophyll content compared with the untreated control: ethylene 10 μL L^−1
Protocol: (1) Abscission-This is a very sensitive model system for studying the effects of plant hormones. Ethylene induces the process of abscission, while auxin delays it. In the laboratory the experimental system is based on plant organ explants, which include the abscission zone. Abscission is induced by exposure to ethylene and at the termination of the experiment the number of abscised organs, usually either leaf blades or petioles are counted and the fraction of abscission is calculated. In the case of fruit, the decrease in fruit retention force is analyzed. […] The plants or explants are then further exposed for 24 h to ethylene gas (5 to 20 μL L^-1). The plants or explants are then ventilated and incubated for the required time under controlled conditions. At the end of the experiment the percentage of abscission is determined. […] Plant material (whole plants, excised leaves or leaf discs) are pretreated. […] The plants or explants are then ventilated and incubated for the required time under controlled conditions. At the end of the experiment a dimethylsulfoxide (DMSO) extract of the plant tissue is prepared, and the chlorophyll content of the extract is determined by spectrophotometric analysis. The chlorophyll content is reported either on a fresh, dry weight basis, or on a surface area basis. (3) Epinasty-This is also one of the classical methods for studying ethylene effects in plants. The extent of ethylene-induced epinasty of leaves is determined by measuring the change of the angle between the petiole and the stem shoot or blade. After exposure of the intact plant to ethylene, the upright grown leaves bend downward. […] The plants are then ventilated and incubated for the required time under controlled conditions. The epinastic effect is expressed by measuring the degree values of the downward curvature between the blade and petiole (cotton, FIGS. 1-3) or between the blade and the stem (wheat, FIGS. 31 and 32). […] In this project the intact plants were grown in the greenhouse up to the spike […] stage I and II. […] Young Cotton Seedlings […] The content of chlorophyll in the leaf blades of the treated plants remained the same as in the untreated control (FIGS. 5 and 6).

O=C([O-])CCC1=CC1.[Na+] [WS-CPD, 3-cyclopropyl-1-enyl-propanoic sodium salt]
Ethephon-induced chlorophyll degradation in the glumes and chaffs (wheat plants [1]; WS-CPD 62 μg mL^−1, Ethephon 250 μL L^−1): completely reversed | decrease of chlorophyll content in the flag leaf (wheat plants [1]; WS-CPD 312 μg mL^−1, Ethephon 250 μL L^−1, milky stage I): almost completely antagonized | chlorophyll decrease induced by Ethephon (wheat plants [1]; WS-CPD 415 μg mL^−1, Ethephon 750 μL L^−1, both types of leaves, milky stage I): only slightly antagonized | Ethephon-induced decrease of chlorophyll (wheat plants [1]; WS-CPD 12 to 62 μg mL^−1, milky stage I, mainly flag leaf, also leaf II): significantly reduced | effect on chlorophyll in leaves treated with Ethephon (wheat plants [1]; WS-CPD 15 to 135 μg L^−1 (so in the source), Ethephon 750 μL L^−1, milky stage II): not effective | decrease in the chlorophyll titer in the treated spike-chaffs (wheat plants [1]; WS-CPD 15 to 135 μg L^−1 (so in the source), Ethephon 750 μL L^−1, milky stage II, insignificant): 3% | Ethephon-induced decrease in the content of chlorophyll (wheat plants [1]; chaffs, Ethephon 750 μL L^−1): markedly antagonized | increase of chlorophyll content above control untreated plants (wheat plants [1]; chaffs, WS-CPD 62 μg mL^−1, Ethephon 250 μL L^−1): 10% | Ethephon-induced decrease in the content of chlorophyll (wheat plants [1]; glumes, Ethephon 750 μL L^−1): much less effective | increase of chlorophyll content above control untreated plants (wheat plants [1]; glumes, WS-CPD 62 μg mL^−1, Ethephon 250 μL L^−1): 60% | Ethephon-induced decrease of grain weight (wheat plants [2]; WS-CPD 135 μg mL^−1 pretreatment at milky stage I, both milky stages): prevented the decrease | overcoming the Ethephon reduction in grain weight (wheat plants [2]; WS-CPD 80 to 180 μg mL^−1): best results | grain yield increase by antagonizing Ethephon (wheat plants [2]; milky stage I): ca. 5% | grain yield increase by antagonizing Ethephon (wheat plants [2]; milky stage II): ca. 16% | ethylene-induced chlorophyll degradation (young cotton seedlings; WS-CPD 10 μg mL^−1 pretreatment, ethylene 10 μL L^−1 24 h): completely antagonized | increase of chlorophyll content compared with the untreated control (young cotton seedlings; WS-CPD 30 μg L^−1 (so in the source)): 20% | increase of chlorophyll content compared with the untreated control (young cotton seedlings; WS-CPD 100 μg L^−1 (so in the source)): 28% | ethylene-induced chlorophyll degradation (young cotton seedlings; higher concentrations of WS-CPD (up to 300 μg mL^−1)): less effective

Reference: US9363996B2, “Compositions and method for blocking ethylene response in field crops using 3-(cy-clopropyl-l-enyl)-propanoic salt” (Yissum Research Development Company of the Hebrew …, priority 2009, dated 2016)
